Patent US20250136606A1, “MODULATORS OF TRPML, THEIR COMPOSITIONS AND METHODS OF USE” (Caraway Therapeutics, Inc., priority 2021, published 2025)
Like-named read-outs stand apart in the source and are kept apart here.

Experiments:
Format in all cases: cell-based
[1] = target: T1, TRPML3 (Homo sapiens, UniProt Q8TDD5); assay: Fluorescent TRPML3 assay (performed as for TRPML1, substituting the TRPML3 subtype)
T1 construct: expressed in transfected cells
T1 sequence (Q8TDD5 1-553): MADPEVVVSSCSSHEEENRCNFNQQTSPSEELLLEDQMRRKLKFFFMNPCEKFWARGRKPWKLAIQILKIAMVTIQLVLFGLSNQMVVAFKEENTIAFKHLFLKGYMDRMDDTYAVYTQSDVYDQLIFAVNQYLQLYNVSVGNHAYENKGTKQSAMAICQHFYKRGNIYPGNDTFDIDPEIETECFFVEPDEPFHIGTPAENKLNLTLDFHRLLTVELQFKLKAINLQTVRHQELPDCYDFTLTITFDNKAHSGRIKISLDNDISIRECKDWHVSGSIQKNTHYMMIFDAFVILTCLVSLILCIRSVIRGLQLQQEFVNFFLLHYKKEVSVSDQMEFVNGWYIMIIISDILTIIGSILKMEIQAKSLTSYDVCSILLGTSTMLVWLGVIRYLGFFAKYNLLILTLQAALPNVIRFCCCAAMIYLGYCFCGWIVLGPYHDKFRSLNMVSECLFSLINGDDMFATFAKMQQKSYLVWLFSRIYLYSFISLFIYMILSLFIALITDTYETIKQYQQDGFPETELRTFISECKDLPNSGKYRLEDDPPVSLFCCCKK
How it was run: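 HEK-293 Trex, dox-induced (0.5 ug/mL), mutated for surface expression. Fluo4-AM 1 micromolar load ~60 min, dark; buffer modified Ringer's, 10 mM Ca. Cpds 20 micromolar–6 nanomolar final, half-log, n=3. Read ex 480/em 540; % activity vs controls; EC50 nonlinear fit.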

[2] = target: T2, TRPML2 (Homo sapiens, UniProt Q8IZK6); assay: Fluorescent TRPML2 assay (performed as for TRPML1, substituting the TRPML2 subtype)
T2 construct: expressed in transfected cells
T2 sequence (Q8IZK6 1-566): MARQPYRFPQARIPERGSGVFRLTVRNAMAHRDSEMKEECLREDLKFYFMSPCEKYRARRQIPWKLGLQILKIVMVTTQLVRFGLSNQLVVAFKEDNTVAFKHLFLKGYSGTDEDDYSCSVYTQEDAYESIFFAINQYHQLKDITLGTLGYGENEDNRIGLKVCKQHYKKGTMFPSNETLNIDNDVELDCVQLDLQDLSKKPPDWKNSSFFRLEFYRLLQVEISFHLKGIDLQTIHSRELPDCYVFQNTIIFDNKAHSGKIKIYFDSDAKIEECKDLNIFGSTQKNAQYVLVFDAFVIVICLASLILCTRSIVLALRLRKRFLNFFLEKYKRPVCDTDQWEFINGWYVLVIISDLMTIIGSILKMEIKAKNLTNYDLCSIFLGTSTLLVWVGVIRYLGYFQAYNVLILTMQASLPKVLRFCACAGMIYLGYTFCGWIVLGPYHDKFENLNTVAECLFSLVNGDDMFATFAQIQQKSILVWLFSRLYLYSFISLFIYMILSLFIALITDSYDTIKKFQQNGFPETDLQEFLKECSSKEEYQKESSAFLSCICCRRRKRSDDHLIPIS
Method: HEK-293 Trex cells were stably transfected with a construct consisting of the human coding sequence for TRPML1 cloned into the […] plasmid pCDNA5 T/O. Mutations were introduced into the TRPML1 sequence to facilitate expression on the cell surface (Silvia Vergarajauregui, Rosa Puertollano, Traffic. 2006 March; 7(3): 337-353). Briefly, the cells are cultured in 150 mm round tissue culture dishes containing 20 mL of media. The day before the assay the cells are rinsed with DPBS-Ca—Mg and then treated briefly with Trypsin-EDTA. The Trypsin-EDTA is diluted with growth media, and cells are counted. 38×10^6 cells are re-plated into 150 mm round tissue culture dishes in media containing 0.5 ug/mL doxycycline to induce expression of hTRPML1.
The day of the experiment cells are lifted from the plates as above and collected by centrifugation. The cells are then suspended in dye loading buffer consisting of Ringer's solution supplemented with 0.1% Pluronic Acid and 1 micromolar Fluo4-AM dye. Cells are loaded for ˜60 minutes in the dark with occasional mixing. The cells are collected by centrifugation, the loading media aspirated, and the cells resuspended in 25 mL Ringer's solution and incubated ˜60 minutes in the dark. The cells are again collected by centrifugation, rinsed in Ringer's Solution and resuspended to […] in modified Ringer's solution containing 10 mM calcium.
Compounds are dissolved to a concentration of 10 millimolar with DMSO. Compound plates are created by dispensing compounds into 384 well black wall clear bottom plates (Greiner 781091). Positive and negative controls are included on each plate. Typically, different amounts of each compound are tested ranging from 100 nanoMoles (20 micromolar final concentration) decreasing in half-log steps to 31 picoMoles (6 nanomolar final concentration). Each concentration is typically tested in triplicate.
50 microliters of dye-loaded cells are dispensed into each well of the compound assay plate created above. The fluorescence in each well is then determined with an excitation wavelength of 480 nm and an emission wavelength of 540 nm using either a Molecular Devices SpectraMax multimode plate reader or a Hamamatsu FDSS/uCell plate imager.
The resulting fluorescence for each well is exported as an ascii file and loaded into our LIMS for analysis. The percent activity of each compound at each concentration is determined by comparison to the positive and negative control wells included in each plate.
TRPML2 and TRPML3 Assays Assays for TRPML2 and TRPML3 were performed as above for TRPML1, by substituting the appropriate TRPML2 or TRPML3 subtype for the TRPML1.
EC50 values were calculated using a non-linear regression of Prism. In the table, “A” indicates an EC50 of less than 100 nM, “B” indicates an EC50 range from 100 nM to 500 nM; “C” indicates an EC50 range from 500 nM to 2 μM; and “D” indicates an EC50 greater than 2 μM.

[3] = target: TRPML1 (Homo sapiens, UniProt Q9GZU1); assay: Fluorescent TRPML1 assay (Fluo4-AM calcium fluorescence in doxycycline-induced HEK-293 Trex cells)
Sequence of TRPML1 (Q9GZU1 whole entry L15A/L16A/L577A/L578A, form open): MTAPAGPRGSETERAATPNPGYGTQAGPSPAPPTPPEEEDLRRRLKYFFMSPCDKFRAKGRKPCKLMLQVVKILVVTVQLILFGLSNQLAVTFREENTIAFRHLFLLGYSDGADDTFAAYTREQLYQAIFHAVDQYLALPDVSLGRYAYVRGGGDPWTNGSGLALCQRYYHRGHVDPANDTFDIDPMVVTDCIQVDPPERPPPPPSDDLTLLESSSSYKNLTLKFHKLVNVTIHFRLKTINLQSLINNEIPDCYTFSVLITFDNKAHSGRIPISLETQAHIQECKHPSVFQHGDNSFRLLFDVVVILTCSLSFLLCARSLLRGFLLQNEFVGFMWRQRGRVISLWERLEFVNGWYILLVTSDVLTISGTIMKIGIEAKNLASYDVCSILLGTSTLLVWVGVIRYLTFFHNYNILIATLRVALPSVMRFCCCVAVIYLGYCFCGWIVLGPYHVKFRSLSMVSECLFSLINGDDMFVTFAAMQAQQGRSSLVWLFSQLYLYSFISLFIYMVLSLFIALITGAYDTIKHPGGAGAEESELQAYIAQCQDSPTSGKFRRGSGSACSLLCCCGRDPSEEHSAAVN
How it was run: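 hTRPML1 (mutated for cell-surface expression) in HEK-293 Trex, dox 0.5 ug/mL o/n; Fluo4-AM 1 uM ~60 min, then ~60 min de-esterification, dark; modified Ringer's + 10 mM Ca. Cmpds 20 uM–6 nM final, half-log, n=3. Ex480/Em540; % activity vs ctrls; EC50 by nonlinear regression.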

Row | EC50 ([1]; fluorescent calcium assay) | EC50 ([2]; fluorescent calcium assay) | EC50 ([3]; fluorescent calcium assay) | EC50 [1] | EC50 [2] | EC50 [3] | SMILES
1 | 100 to 500 nM | > 2000 nM | 500 to 2000 nM | – | – | – | CC(C)(C)OC(=O)N1CCN(c2ncnc3c2c(C2CC2)cn3-c2cc(F)cc(F)c2)C[C@@H]1CF (single isomer, unassigned) [Compound 270]
2 | 500 to 2000 nM | > 2000 nM | 500 to 2000 nM | – | – | – | CC(C)(C)OC(=O)N1CCN(c2ncnc3c2c(C2CC2)cn3-c2cc(F)cc(F)c2)C[C@H]1C(F)F (single isomer, unassigned) [Compound 314]
3 | < 100 nM | 100 to 500 nM | 100 to 500 nM | – | – | – | CC(C)(C)OC(=O)N1CCN(c2ncnc3c2c(C2CC2)cn3-c2cc(C#N)ccn2)[C@@H]2C[C@@H]21 (single isomer, unassigned) [Compound 408]
4 | < 100 nM | 100 to 500 nM | < 100 nM | – | – | – | CC(C)(C)OC(=O)N1CCN(c2ncnc3c2c(C2CC2)cn3-c2cc(C#N)ccn2)[C@H]2C[C@H]21 (single isomer, unassigned) [Compound 409]
5 | – | – | – | 100 to 500 nM | 500 to 2000 nM | 100 to 500 nM | C[C@@H]1CN(c2ncnc3c2c(C(F)(F)F)cn3[C@@H]2CCCC(F)(F)C2)[C@@H](C)CN1C(=O)OC(C)(C)C (single isomer, unassigned) [Compound 714]
6 | < 100 nM | 100 to 500 nM | 100 to 500 nM | – | – | – | CC(C)(C)OC(=O)N1CCN(c2ncnc3c2c(-c2ccccn2)cn3-c2cccc(Cl)c2)CC1 [Compound 101, tert-butyl 4-(7-(3-chlorophenyl)-5-(pyridin-2-yl)-7H-pyrrolo[2,3-d]pyrimidin-4-yl)piperazine-1-carboxylate]
7 | < 100 nM | 100 to 500 nM | < 100 nM | – | – | – | CC(C)(C)OC(=O)N1CCN(c2ncnc3c2c(-c2cccnc2)cn3-c2cccc(Cl)c2)CC1 [Compound 102, tert-butyl 4-(7-(3-chlorophenyl)-5-(pyridin-3-yl)-7H-pyrrolo [2,3-d]pyrimidin-4-yl)piperazine-1-carboxylate]
8 | 100 to 500 nM | 500 to 2000 nM | 100 to 500 nM | – | – | – | COc1cncc(-n2cc(-c3ccccc3F)c3c(N4CCN(C(=O)OC(C)(C)C)CC4)ncnc32)c1 [Compound 103, tert-butyl 4-(5-(2-fluorophenyl)-7-(5-methoxypyridin-3-yl)-7H-pyrrolo[2,3-d]pyrimidin-4-yl)piperazine-1-carboxylate]
9 | 100 to 500 nM | > 2000 nM | 500 to 2000 nM | – | – | – | COc1cncc(-n2cc(C3CC3)c3c(N4CCN(C(=O)OC(C)(C)C)CC4)ncnc32)c1 [Compound 104, tert-butyl 4-(5-cyclopropyl-7-(5-methoxypyridin-3-yl)-7H-pyrrolo[2,3-d]pyrimidin-4-yl)piperazine-1-carboxylate]
10 | 500 to 2000 nM | > 2000 nM | 500 to 2000 nM | – | – | – | COc1cncc(-n2cc(-c3ccccc3F)c3c(N4CCN(C(=O)OC(C)(C)C)C[C@@H]4C)ncnc32)c1 [Compound 105, tert-butyl (S)-4-(5-(2-fluorophenyl)-7-(5-methoxypyridin-3-yl)-7H-pyrrolo[2,3-d]pyrimidin-4-yl)-3-methylpiperazine-1-carboxylate]
11 | 100 to 500 nM | 500 to 2000 nM | 100 to 500 nM | – | – | – | COc1cncc(-n2cc(C3CC3)c3c(N4CCN(C(=O)OC(C)(C)C)C[C@@H]4C)ncnc32)c1 [Compound 106, tert-butyl (S)-4-(5-cyclopropyl-7-(5-methoxypyridin-3-yl)-7H-pyrrolo[2,3-d]pyrimidin-4-yl)-3-methylpiperazine-1-carboxylate]
12 | < 100 nM | 100 to 500 nM | < 100 nM | – | – | – | CC(C)(C)OC(=O)N1CCN(c2ncnc3c2c(C2CC2)cn3-c2ccc(Cl)cc2)CC1 [Compound 107, tert-butyl 4-(7-(4-chlorophenyl)-5-cyclopropyl-7H-pyrrolo[2,3-d]pyrimidin-4-yl) piperazine-1-carboxylate]
13 | < 100 nM | 100 to 500 nM | < 100 nM | – | – | – | C[C@@H]1CN(c2ncnc3c2c(C2CC2)cn3-c2cc(F)cc(F)c2)CCN1C(=O)OC(C)(C)C [Compound 108, tert-butyl (R)-4-(5-cyclopropyl-7-(3,5-difluorophenyl)-7H-pyrrolo[2,3-d]pyrimidin-4-yl)-2-methylpiperazine-1-carboxylate]
14 | < 100 nM | < 100 nM | < 100 nM | – | – | – | C[C@@H]1CN(c2ncnc3c2c(C2CC2)cn3-c2ccc(F)c(F)c2)CCN1C(=O)OC(C)(C)C [Compound 109, tert-butyl (R)-4-(5-cyclopropyl-7-(3,4-difluorophenyl)-7H-pyrrolo[2,3-d]pyrimidin-4-yl)-2-methylpiperazine-1-carboxylate]
15 | < 100 nM | < 100 nM | < 100 nM | – | – | – | C[C@@H]1CN(c2ncnc3c2c(C2CC2)cn3-c2ccc(Cl)c(F)c2)CCN1C(=O)OC(C)(C)C [Compound 110, tert-butyl (R)-4-(7-(4-chloro-3-fluorophenyl)-5-cyclopropyl-7H-pyrrolo[2,3-d]pyrimidin-4-yl)-2-methylpiperazine-1-carboxylate]
16 | < 100 nM | 100 to 500 nM | < 100 nM | – | – | – | C[C@@H]1CN(c2ncnc3c2c(C2CC2)cn3-c2cc(Cl)cc(Cl)c2)CCN1C(=O)OC(C)(C)C [Compound 111, tert-butyl (R)-4-(5-cyclopropyl-7-(3,5-dichlorophenyl)-7H-pyrrolo[2,3-d]pyrimidin-4-yl)-2-methylpiperazine-1-carboxylate]
17 | 500 to 2000 nM | 100 to 500 nM | 100 to 500 nM | – | – | – | CCOC(=O)N1CCN(c2ncnc3c2c(C2CC2)cn3-c2ccc(Cl)cc2)[C@@H](C)C1 [Compound 112, ethyl (S)-4-(7-(4-chlorophenyl)-5-cyclopropyl-7H-pyrrolo[2,3-d]pyrimidin-4-yl)-3-methylpiperazine-1-carboxylate]
18 | 100 to 500 nM | 500 to 2000 nM | < 100 nM | – | – | – | CC(C)(C)OC(=O)N1CCN(c2ncnc3c2c(C2CC2)cn3-c2ccc(F)c(F)c2)CC1 [Compound 113, tert-butyl 4-(5-cyclopropyl-7-(3,4-difluorophenyl)-7H-pyrrolo[2,3-d]pyrimidin-4-yl)piperazine-1-carboxylate]
